These results are taken from ChEMBL document CHEMBL1128090, “Substituted 2,4-diaminoquinazolines and 2,4-diamino-8-alkylpurines as antagonists of the neurokinin-2 (NK2) receptor” (Bioorg Med Chem Lett, 1995).

Each structure is given as a SMILES string.

For test [1], the target named is T1, Substance-K receptor (Homo sapiens, UniProt P21452).
T1 sequence (P21452 whole entry): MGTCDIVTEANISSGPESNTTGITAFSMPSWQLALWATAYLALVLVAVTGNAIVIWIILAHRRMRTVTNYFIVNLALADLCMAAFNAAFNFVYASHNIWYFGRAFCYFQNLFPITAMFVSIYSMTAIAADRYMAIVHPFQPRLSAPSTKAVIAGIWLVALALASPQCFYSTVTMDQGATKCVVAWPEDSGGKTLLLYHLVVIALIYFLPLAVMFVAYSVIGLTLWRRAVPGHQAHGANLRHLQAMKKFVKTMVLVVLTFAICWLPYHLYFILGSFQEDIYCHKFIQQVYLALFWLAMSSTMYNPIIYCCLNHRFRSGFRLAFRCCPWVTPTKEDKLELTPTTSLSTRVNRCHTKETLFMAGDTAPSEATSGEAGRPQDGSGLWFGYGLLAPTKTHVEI
The test is described as follows: Inhibition constant for displacement of [3H]NKA from the cloned human NK2 receptor. (In general: Displacement assays read how much labelled ligand stays bound in the presence of the test substance.)

Test [2] concerns the target T2, Substance-K receptor (Mesocricetus auratus, UniProt P51144).
T2 sequence (P51144 whole entry): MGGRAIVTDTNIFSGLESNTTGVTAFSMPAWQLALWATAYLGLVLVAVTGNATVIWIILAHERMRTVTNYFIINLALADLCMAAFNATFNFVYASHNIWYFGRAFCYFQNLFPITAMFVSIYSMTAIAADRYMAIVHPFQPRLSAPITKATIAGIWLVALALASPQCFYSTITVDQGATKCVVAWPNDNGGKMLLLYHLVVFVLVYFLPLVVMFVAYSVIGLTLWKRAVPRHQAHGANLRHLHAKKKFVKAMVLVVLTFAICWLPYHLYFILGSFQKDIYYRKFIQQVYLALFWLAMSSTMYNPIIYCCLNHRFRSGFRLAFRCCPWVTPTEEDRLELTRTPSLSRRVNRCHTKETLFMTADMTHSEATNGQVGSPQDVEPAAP
Kind of test: Inhibition constant for displacement of [3H]NKA from Tachykinin receptor 2 found in hamster urinary bladder membrane (HUBM). In kind it is cell membranes.

Test [3] has as its target T1, Substance-K receptor. The test is described as follows: Displacement of [3H]NKA from the cloned human Tachykinin receptor 2 which has been expressed in baculovirus infected insect sf21 cells.
For test [4], the species on record is Cavia porcellus. The test is described as follows: Compound was tested for the inhibition of contraction induced by [b-Ala8-NKA(4-10)] in guinea pig trachea. In kind it is functional.
Test [5] has as its target T1, Substance-K receptor. The test is described as follows: Inhibition constant for displacement of [3H]-NKA from the cloned human NK2 receptor which has been expressed in baculovirus infected insect sf21 cells.

With `CCc1nc2nc(N3CCOCC3)nc(Nc3ccc(Cl)cc3)c2[nH]1`, the Ki (usually a measure of affinity in units of concentration, obtained from inhibition or displacement) stood at 6.94 µM in test [1] and 0.52 µM in test [2].

For the compound `COC1(OC)CCN(c2nc(Nc3ccc(Cl)cc3)c3[nH]c(C(C)C)nc3n2)CC1`, the Ki in test [3] is 3.44 µM.

On to `CC(C)NC(=O)c1ccc2c(Nc3ccc(Cl)cc3)nc(N3CCOCC3)nc2c1`, for which, in test [2], affinity was put at a Ki of 58.7 µM.

Take `CC(C)c1nc2[nH]c(NCc3ccccc3)nc(Nc3ccc(Cl)cc3)c-2n1`: affinity in test [3] was put at a Ki of 5.58 µM.

As for `O=C(O)c1ccc2c(Nc3ccc(Cl)cc3)nc(N3CCOCC3)nc2c1`, in test [2], the Ki was 20.3 µM.

On to `COC(=O)c1ccc2c(Nc3ccc(Cl)cc3)nc(N3CCOCC3)nc2c1`, for which the Ki in test [2] is 0.82 µM.

With `CC(C)c1nc2[nH]c(N3CCC4(CC3)OCCO4)nc(Nc3ccc(Cl)cc3)c-2n1`, the affinity in test [3], expressed as Ki, was 4.36 µM.

In test [3], `CC(C)c1nc2nc(N3CCC(O)(c4ccccc4)CC3)nc(Nc3ccc(Cl)cc3)c2[nH]1` returned a Ki of 2.24 µM. In test [4], this compound had a Kb of 100 µM.

Consider `Clc1ccc(Nc2nc(N3CCOCC3)nc3ccccc23)cc1`, for which the Ki in test [2] was 29.5 µM.

For the compound `CC(C)c1nc2nc(N3CCC(O)CC3)nc(Nc3ccc(C(F)(F)F)cc3)c2[nH]1`, in test [3], the Ki turned out to be 1.77 µM. Moreover, the Kb in test [4] was greater than 100 µM.

For `CCCNc1nc(Nc2ccc(Cl)cc2)c2[nH]c(C(C)C)nc2n1`, the affinity in test [3], expressed as Ki, was 3.49 µM.

Consider `CCCc1nc2nc(N3CCOCC3)nc(Nc3ccc(Cl)cc3)c2[nH]1`, for which the Ki in test [1] came to 2.34 µM; in test [2], 0.054 µM.

As to `CC(C)N1Cc2c(Nc3ccc(Cl)cc3)nc(N3CCOCC3)nc2C1=O`, the figures for the Ki in test [1] and in test [2] were 0.55 µM and 0.015 µM, respectively.

In test [3], `CC(C)c1nc2nc(N3CCC(C)(O)CC3)nc(Nc3ccc(Cl)cc3)c2[nH]1` came in with a Ki of 2.1 µM. In test [4], this compound gave a Kb of 10.7 µM.

In the case of `CC(C)c1nc2[nH]c(N3CCOCC3)nc(Nc3ccc(Cl)cc3)c-2n1`, the Kb in test [4] was determined as 70.8 µM. Besides, the inhibition constant Ki turned out to be 3.07 µM in test [5] and 0.067 µM in test [2].

As for `CC(C)c1nc2[nH]c(NCCCN)nc(Nc3ccc(Cl)cc3)c-2n1`, in test [3], the Ki came out at 2.55 µM.

`CC(C)c1nc2nc(N3CCOCC3)nc(Nc3ccc(C(F)(F)F)cc3)c2[nH]1` had a Ki in test [3] of 2.85 µM. This compound displayed a Kb in test [4] greater than 100 µM.

`CC(C)c1nc2[nH]c(N3CCC(=O)CC3)nc(Nc3ccc(Cl)cc3)c-2n1`: the Ki in test [3] amounted to 5.89 µM.

For `Cc1nc2[nH]c(N3CCOCC3)nc(Nc3ccc(Cl)cc3)c-2n1`, the Ki in test [1] was determined as 17.5 µM; in test [2], 6.6 µM.
